From article PMC10630888, “Nuclear ERK1/2 signaling potentiation enhances neuroprotection and cognition via Importinα1/KPNA2” (EMBO Molecular Medicine, 2023)

Legend:
[1] = tested on: p44 ERK1 and p42 ERK2; experiment: Western blot of pERK1/2 and total ERK1/2 in HEK293 cells; type: cell-based; conditions: serum-starved HEK 293 cells, 50 μM, 15 min
Protocol: For Western blot and immunofluorescence analysis, 0.6 × 10^6 HEK293 cells were seeded in 6‐well plates in the presence of DMEM High Glucose GlutaMax (Thermo Fisher Scientific) containing 10% Foetal Bovine Serum (FBS, Thermo Fisher Scientific) and 100 U/ml penicillin/streptomycin (Thermo Fisher Scientific). For Western blot analysis to assess ERK1/2 and phospho‐ERK1/2 levels, cells were serum starved for 24 h and incubated with RB5 50 μM or FBS 20% for 15 min at 37°C. To assess JNK and phospho‐JNK levels, cells were incubated with RB5 50 μM or anisomycin 5 μM for 30 min at 37°C. For immunofluorescence analysis, cells were serum‐starved for 24 h and incubated with 50 μM RB5 or 20% FBS for 15 min at 37°C.
Cells were collected in ice‐cold lysis buffer (20 mM Tris HCl pH 7.5, 150 mM NaCl, 1% Triton, 1 mM EDTA, complete EDTA‐free protease inhibitor cocktail (Roche), 1 mM sodium orthovanadate, 1 mM sodium fluoride, 1 mM b‐glycerophosphate). Protein concentration was determined with the Biorad DC protein assay. Equal amounts of proteins ([…]) were boiled in sample buffer, separated by SDS‐PAGE, and transferred to nitrocellulose membranes (Amersham). […]

[2] = tested on: p-ERK; experiment: Striatal p-ERK immunohistochemistry 1 h after single injection; type: in vivo, mouse; conditions: single injection 20 mg/kg i.p., individual mice
Protocol: Immunohistochemistry was performed as described in Papale et al ([2016]). Briefly, 1 h after blocking in 5% normal goat serum and 0.1% Triton X‐100 solution, free‐floating sections were incubated overnight at 4°C with one of the following primary antibodies: anti‐phospho‐p44/42 MAP kinase (Thr202/Tyr204) (1:200, Cell Signaling Technology #9101), anti‐phospho–Elk‐1 (Ser383) (1:100, Cell Signaling #9181), anti‐phospho‐Kv4.2 (Thr607)‐R (1:100, Santa Cruz sc22254‐R), anti‐phospho‐MSK‐1 (1:100 Cell Signaling Technology #9595), anti‐phospho‐MEK1/2 (Ser218/222) (1:100, sc‐7995 Santa Cruz Biotechnology), c‐Fos (1:100, sc‐52 Santa Cruz Biotechnology), tyrosine Hydroxylase (monoclonal 1:1,000, Sigma Aldrich, Italy) and anti‐DARPP‐32 (H3) (1:100, Santa Cruz Biotechnology, #sc‐271111) overnight at 4°C. Sections were then incubated with biotinylated goat anti‐rabbit IgG (1:200, Vector Laboratories) or biotinylated goat anti‐mouse (1:200, Vector Laboratories) for 2 h. The classic avidin‐peroxidase complex (ABC, Vector, UK) protocol was applied, using 3,3′‐diaminobenzidine (DAB, Sigma) as a chromogen.
For in vivo immunohistochemistry experiments, images were acquired from the dorsal striatum using a Leica DM IRB microscope under a 20× objective. The number of p‐ERK, p‐MSK‐1, p‐ELK, p‐MEK‐1, p‐VG K+, c‐Fos, and DARPP‐32 positive cells was counted in 2–3 consecutive sections per mouse, bilaterally and averaged across the sections using the ImageJ software by a blind investigator to the condition. Estimation of nigral cell loss was assessed by quantifying the number of TH‐immunopositive neurons of the SNc in 360 μm‐spaced sections for each animal.

GRKKRRQRRRPPQGGGGGEPRRTEGVGPGVPGEVEMVKGQPFDV [RB5, six D-amino acids, acetylated N-terminus]
p44/p42 protein levels (Western blot) [1]: without affecting p44/p42 protein levels | p44 ERK1 and p42 ERK2 phosphorylation (Western blot) [1]: sustained a strong p44 ERK1 and p42 ERK2 phosphorylation | p-ERK positive cells in striatum ([2]; ERK1+/+ (WT) mice): enhanced pERK and pAcH3 in WT | p-ERK positive cells in striatum ([2]; ERK1-/- mice): not in ERK1 KO mice | p-ERK positive cells in striatum ([2]; 1 h): greatly enhanced striatal ERK phosphorylation
